{"source": "patent US20250257054A1", "about": "“SALT FORMS OF A 4H-PYRAN-4-ONE STRUCTURED CYP11 A1 INHIBITOR” (ORION CORPORATION, priority 2021, published 2025)", "key": {"[1]": {"test": "Short-term physical stability of salts at 40° C./75% RH for 2 weeks (XRPD)", "assay_type": "physicochemical", "conditions": "determined by XRPD", "procedure": "(§1) XRPD measurements were performed with the X-ray powder diffractometer Bruker D8 Advance at room temperature, using a copper filled X-ray tube (40 kV×40 mA) as the X-ray source, CuKα (λ=1.5418 Å), a 0.6 mm divergence slit, 2.5° Soller slits on both the primary and secondary beams and the 1-dimensional LynxEye detector (with aperture angle of 2.91593°). Data collection was done in the range of 3.8-33° 2θ with 0.02° increments, at a scan speed of 0.3°/s.\nShort-term physical stability of various salts was studied by exposure at 40° C./75% RH for 2 weeks followed by measurement by XRPD."}, "[2]": {"test": "Slurry stability of crystalline forms of p-toluenesulfonic acid salt in different water activity conditions (XRPD)", "assay_type": "physicochemical", "conditions": "for Resulting form 5° C. / Resulting form 25° C. / Resulting form 40° C.: slurry of Form 3 stirred 2-3 weeks", "procedure": "as §1\nStability of the crystalline forms of p-toluenesulfonic acid salt in different water activity conditions was studied in slurry experiments where crystalline form 3 was stirred for 2-3 weeks at 5° C., 25° C. and 40° C. in mixtures of ethanol:water, acetonitrile (ACN):water, methanol: water and methanol alone. 0.5 ml of solvent was added to 25 mg of each sample. The resulting crystalline form was determined by XRPD."}, "[3]": {"conditions": "ACN:water 92.1:7.9, water activity 0.81"}, "[4]": {"conditions": "ACN:water 96.3:3.7, water activity 0.58"}, "[5]": {"conditions": "EtOH:water 30:70, water activity >0.9"}, "[6]": {"conditions": "EtOH:water 83:17, water activity 0.64"}, "[7]": {"conditions": "EtOH:water 92.8:7.2, water activity 0.40"}, "[8]": {"conditions": "EtOH:water 96.7:3.3, water activity 0.22"}, "[9]": {"conditions": "MeOH:water 36:64, water activity 0.83"}, "[10]": {"conditions": "MeOH:water 77:23, water activity 0.52"}, "[11]": {"conditions": "MeOH:water 90:10, water activity 0.30"}, "[12]": {"conditions": "MeOH:water 95.3:4.7, water activity 0.16"}}, "note": "Where a name gives a salt, the structure may show the parent alone."}
{"smiles": "CS(=O)(=O)N1CCC(COc2coc(CN3Cc4ccc(C(F)(F)F)cc4C3)cc2=O)CC1", "note": "[2-Naphthalenesulphonic acid salt (form 1)] [5-((1-(methyl-sulfonyl)piperidin-4-yl)methoxy)-2-((5-(trifluoromethyl)isoindolin-2-yl)methyl)-4H-pyran-4-one]", "values": [{"measurement": "Form after 2 weeks", "setting": "[1]", "value": "No change"}]}
{"smiles": "CS(=O)(=O)N1CCC(COc2coc(CN3Cc4ccc(C(F)(F)F)cc4C3)cc2=O)CC1", "note": "[Benzenesulfonic acid salt (form 1), 5-((1-(methyl-sulfonyl)piperidin-4-yl)methoxy)-2-((5-(trifluoromethyl)isoindolin-2-yl)methyl)-4H-pyran-4-one]", "values": [{"measurement": "Form after 2 weeks", "setting": "[1]", "value": "No change"}]}
{"smiles": "CS(=O)(=O)N1CCC(COc2coc(CN3Cc4ccc(C(F)(F)F)cc4C3)cc2=O)CC1", "note": "[Form 3, 5-((1-(methylsulfonyl)-piperidin-4-yl)methoxy)-2-((5-(trifluoromethyl)isoindolin-2-yl)methyl)-4H-pyran-4-one]", "values": [{"measurement": "Stability of the crystalline form in the slurry conditions", "setting": "[2]; slurry in solvent:water mixtures and methanol, 5-40° C., 2-3 weeks", "value": "unstable"}, {"measurement": "Resulting form 5° C.", "setting": "[2]; [3]", "value": "Form 2"}, {"measurement": "Resulting form 25° C.", "setting": "[2]; [3]", "value": "Form 2"}, {"measurement": "Resulting form 40° C.", "setting": "[2]; [3]", "value": "Form 2"}, {"measurement": "Resulting form 5° C.", "setting": "[2]; [4]", "value": "Form 2"}, {"measurement": "Resulting form 25° C.", "setting": "[2]; [4]", "value": "Form 2"}, {"measurement": "Resulting form 40° C.", "setting": "[2]; [4]", "value": "Form 2"}, {"measurement": "Resulting form 5° C.", "setting": "[2]; [5]", "value": "Form 2"}, {"measurement": "Resulting form 25° C.", "setting": "[2]; [5]", "value": "Form 2"}, {"measurement": "Resulting form 40° C.", "setting": "[2]; [5]", "value": "Form 2"}, {"measurement": "Resulting form 5° C.", "setting": "[2]; [6]", "value": "Form 2"}, {"measurement": "Resulting form 25° C.", "setting": "[2]; [6]", "value": "Form 2"}, {"measurement": "Resulting form 40° C.", "setting": "[2]; [6]", "value": "Form 2"}, {"measurement": "Resulting form 5° C.", "setting": "[2]; [7]", "value": "Form 1"}, {"measurement": "Resulting form 25° C.", "setting": "[2]; [7]", "value": "Form 1"}, {"measurement": "Resulting form 40° C.", "setting": "[2]; [7]", "value": "Form 1"}, {"measurement": "Resulting form 5° C.", "setting": "[2]; [8]", "value": "Form 1"}, {"measurement": "Resulting form 25° C.", "setting": "[2]; [8]", "value": "Form 1"}, {"measurement": "Resulting form 40° C.", "setting": "[2]; [8]", "value": "Form 1"}, {"measurement": "Resulting form 5° C.", "setting": "[2]; MeOH alone", "value": "Form 1"}, {"measurement": "Resulting form 25° C.", "setting": "[2]; MeOH alone", "value": "Form 1"}, {"measurement": "Resulting form 40° C.", "setting": "[2]; MeOH alone", "value": "Form 1"}, {"measurement": "Resulting form 5° C.", "setting": "[2]; [9]", "value": "Form 2"}, {"measurement": "Resulting form 25° C.", "setting": "[2]; [9]", "value": "Form 2"}, {"measurement": "Resulting form 40° C.", "setting": "[2]; [9]", "value": "Form 2"}, {"measurement": "Resulting form 5° C.", "setting": "[2]; [10]", "value": "Form 2"}, {"measurement": "Resulting form 25° C.", "setting": "[2]; [10]", "value": "Form 2"}, {"measurement": "Resulting form 40° C.", "setting": "[2]; [10]", "value": "Form 1"}, {"measurement": "Resulting form 5° C.", "setting": "[2]; [11]", "value": "Form 1"}, {"measurement": "Resulting form 25° C.", "setting": "[2]; [11]", "value": "Form 1"}, {"measurement": "Resulting form 40° C.", "setting": "[2]; [11]", "value": "Form 1"}, {"measurement": "Resulting form 5° C.", "setting": "[2]; [12]", "value": "Form 1"}, {"measurement": "Resulting form 25° C.", "setting": "[2]; [12]", "value": "Form 1"}, {"measurement": "Resulting form 40° C.", "setting": "[2]; [12]", "value": "Form 1"}]}
{"smiles": "CS(=O)(=O)N1CCC(COc2coc(CN3Cc4ccc(C(F)(F)F)cc4C3)cc2=O)CC1", "note": "[Hydrobromic acid salt (form 1), 5-((1-(methyl-sulfonyl)piperidin-4-yl)methoxy)-2-((5-(trifluoromethyl)isoindolin-2-yl)methyl)-4H-pyran-4-one]", "values": [{"measurement": "Form after 2 weeks", "setting": "[1]", "value": "No change"}]}
{"smiles": "CS(=O)(=O)N1CCC(COc2coc(CN3Cc4ccc(C(F)(F)F)cc4C3)cc2=O)CC1", "note": "[Hydrochloric acid salt (form 1), 5-((1-(methyl-sulfonyl)piperidin-4-yl)methoxy)-2-((5-(trifluoromethyl)isoindolin-2-yl)methyl)-4H-pyran-4-one]", "values": [{"measurement": "Form after 2 weeks", "setting": "[1]", "value": "No change"}]}
{"smiles": "CS(=O)(=O)N1CCC(COc2coc(CN3Cc4ccc(C(F)(F)F)cc4C3)cc2=O)CC1", "note": "[Maleic acid salt (form 1), 5-((1-(methyl-sulfonyl)piperidin-4-yl)methoxy)-2-((5-(trifluoromethyl)isoindolin-2-yl)methyl)-4H-pyran-4-one]", "values": [{"measurement": "Form after 2 weeks", "setting": "[1]", "value": "Form 1 + extra peaks"}]}
{"smiles": "CS(=O)(=O)N1CCC(COc2coc(CN3Cc4ccc(C(F)(F)F)cc4C3)cc2=O)CC1", "note": "[Methanesulfonic acid salt (form 1), 5-((1-(methyl-sulfonyl)piperidin-4-yl)methoxy)-2-((5-(trifluoromethyl)isoindolin-2-yl)methyl)-4H-pyran-4-one]", "values": [{"measurement": "Form after 2 weeks", "setting": "[1]", "value": "No change"}]}
{"smiles": "CS(=O)(=O)N1CCC(COc2coc(CN3Cc4ccc(C(F)(F)F)cc4C3)cc2=O)CC1", "note": "[Oxalic acid salt (form 1), 5-((1-(methyl-sulfonyl)piperidin-4-yl)methoxy)-2-((5-(trifluoromethyl)isoindolin-2-yl)methyl)-4H-pyran-4-one]", "values": [{"measurement": "Form after 2 weeks", "setting": "[1]", "value": "Form 1 + extra peaks"}]}
{"smiles": "CS(=O)(=O)N1CCC(COc2coc(CN3Cc4ccc(C(F)(F)F)cc4C3)cc2=O)CC1", "note": "[Oxalic acid salt (form 2), 5-((1-(methyl-sulfonyl)piperidin-4-yl)methoxy)-2-((5-(trifluoromethyl)isoindolin-2-yl)methyl)-4H-pyran-4-one]", "values": [{"measurement": "Form after 2 weeks", "setting": "[1]", "value": "No change"}]}
{"smiles": "CS(=O)(=O)N1CCC(COc2coc(CN3Cc4ccc(C(F)(F)F)cc4C3)cc2=O)CC1", "note": "[Oxalic acid salt (form 3), 5-((1-(methyl-sulfonyl)piperidin-4-yl)methoxy)-2-((5-(trifluoromethyl)isoindolin-2-yl)methyl)-4H-pyran-4-one]", "values": [{"measurement": "Form after 2 weeks", "setting": "[1]", "value": "Form 3 + extra peaks"}]}
{"smiles": "CS(=O)(=O)N1CCC(COc2coc(CN3Cc4ccc(C(F)(F)F)cc4C3)cc2=O)CC1", "note": "[Oxalic acid salt (form 4), 5-((1-(methyl-sulfonyl)piperidin-4-yl)methoxy)-2-((5-(trifluoromethyl)isoindolin-2-yl)methyl)-4H-pyran-4-one]", "values": [{"measurement": "Form after 2 weeks", "setting": "[1]", "value": "No change"}]}
{"smiles": "CS(=O)(=O)N1CCC(COc2coc(CN3Cc4ccc(C(F)(F)F)cc4C3)cc2=O)CC1", "note": "[p-Toluenesulfonic acid salt (form 1), 5-((1-(methylsulfonyl)-piperidin-4-yl)methoxy)-2-((5-(trifluoromethyl)isoindolin-2-yl)methyl)-4H-pyran-4-one]", "values": [{"measurement": "Water activity in which the crystalline form is favoured", "setting": "[2]; slurry experiments, 5-40° C., 2-3 weeks, values stated as 'about', listed as crystalline form 1 of p-toluenesulfonic acid salt", "value": "up to 0.4"}, {"measurement": "Form after 2 weeks", "setting": "[1]", "value": "No change"}]}
